According to PubChem BioAssay (NCI):
Several values for one entry are separate records, joined by “and”; a condition that tells them apart may be missing. Equal values may be shown once.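 Briefly, cells in 96-well plates were exposed to five compound concentrations for 48 h, and endpoints were estimated by linear interpolation. Here, GI50 denotes the concentration required for 50% inhibition of growth. TGI denotes the concentration required for complete inhibition of growth.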

Legend:
Assay in all cases: NCI-60 cell line screen, 48 h
EKVX NSCLC = test system: EKVX NSCLC
HCT-116 colon = test system: HCT-116 colon
HOP-62 NSCLC = test system: HOP-62 NSCLC
HT29 colon = test system: HT29 colon
IGROV1 ovarian = test system: IGROV1 ovarian
KM12 colon = test system: KM12 colon
LOX IMVI melanoma = test system: LOX IMVI melanoma
NCI-H23 lung = test system: NCI-H23 lung
PC-3 prostate = test system: PC-3 prostate
SF-539 CNS = test system: SF-539 CNS
SK-MEL-5 melanoma = test system: SK-MEL-5 melanoma
SNB-19 CNS = test system: SNB-19 CNS
COLO 205 colon = test system: COLO 205 colon

Row | Compound | TGI (EKVX NSCLC) | TGI (HCT-116 colon) | TGI (HOP-62 NSCLC) | TGI (HT29 colon) | TGI (IGROV1 ovarian) | TGI (KM12 colon) | TGI (LOX IMVI melanoma) | TGI (NCI-H23 lung) | TGI (PC-3 prostate) | TGI (SF-539 CNS) | TGI (SK-MEL-5 melanoma) | TGI (SNB-19 CNS) | TGI (COLO 205 colon) | GI50 (HOP-62 NSCLC) | GI50 (KM12 colon) | GI50 (PC-3 prostate) | GI50 (SK-MEL-5 melanoma) | GI50 (SNB-19 CNS)
1 | COC(=O)c1cc(C)ccc1/C=C1\Cc2cc(C)c(C)cc2C1=O | > 100 µM | > 100 µM | > 100 µM | > 100 µM | > 100 µM | > 100 µM | > 100 µM | > 100 µM | > 100 µM | > 100 µM | > 100 µM | > 100 µM | – | – | – | – | – | –
2 | CON(C)C(=O)C(Cc1ccccc1)NC(=O)OC(C)(C)C (stereo not drawn) | > 100 µM | > 100 µM | > 100 µM | > 100 µM | > 100 µM | > 100 µM | – | > 100 µM | > 100 µM | > 100 µM | > 100 µM | > 100 µM | > 100 µM | – | – | – | – | –
3 | COC(=O)c1cc(C#N)[nH]c1-c1ccsc1 | > 100 µM | > 100 µM | > 100 µM | > 100 µM | > 100 µM | > 100 µM | > 100 µM | > 100 µM | > 100 µM | – | > 100 µM | – | > 100 µM | – | – | – | – | –
4 | CCOC(=O)C1C(=O)CC(C)(O)C(C(=O)OCC)C1c1ccc(N(C)C)cc1 (stereo not drawn) | > 100 µM | > 100 µM | > 100 µM | > 100 µM | > 100 µM | > 100 µM | > 100 µM | > 100 µM | > 100 µM | – | > 100 µM | > 100 µM | > 100 µM | – | – | – | – | –
5 | CC1OC(OC2C(OC(=O)[C@]34CCC(C)(C)C[C@H]3C3=CC[C@@H]5[C@@]6(C)CC[C@H](OC7OC(C(=O)O)C(O)C(O)C7O)C(C)(C)[C@@H]6CC[C@@]5(C)[C@]3(C)CC4)OCC(O)C2O)C(O)C(O)C1OC1OCC(O)C(O)C1O (stereo partly drawn) | 79.3 µM and 48.4 µM | > 100 µM | > 100 µM and 55.6 µM | > 100 µM and 30.1 µM | > 100 µM | > 100 µM and 34 µM | > 100 µM | 42.5 µM and 38.3 µM | > 100 µM and 74.7 µM | – | > 100 µM | > 100 µM | 31.2 µM and 30.6 µM | > 100 µM and 25.5 µM | 37.9 µM and 17.1 µM | 66.9 µM and 25.2 µM | > 100 µM and 28.3 µM | > 100 µM and 47.5 µM
6 | COC1Cc2c(C)c(OC(C)=O)c3cccnc3c2O1 (stereo not drawn) | 30.6 µM | > 100 µM | 90.9 µM | > 100 µM | 37.3 µM | > 100 µM | – | 36.3 µM | > 100 µM | > 100 µM | 29.2 µM | > 100 µM | > 100 µM | – | – | – | – | –
7 | COc1ccccc1C1C2=C(COC2=O)OC(C)(C)Oc2cc3c(cc21)OCO3 (stereo not drawn) | 26.7 µM | > 36.1 µM | > 65.4 µM | 17.3 µM | > 87.1 µM | 11.4 µM | > 44.2 µM | > 59.2 µM | > 29.7 µM | – | 21 µM | 58.2 µM | 7.5 µM | – | – | – | – | –
8 | O=[N+]([O-])C(/C(Cl)=C(/Cl)N1CCCCC1)=C1\NCCO1 | > 100 µM | > 100 µM | > 100 µM | > 100 µM | – | > 100 µM | – | > 100 µM | > 100 µM | > 100 µM | – | > 100 µM | > 100 µM | – | – | – | – | –
9 | Cc1cc(S(=O)(=O)Nc2nc(N)n(-c3cnc4ccccc4n3)n2)c(S)cc1Cl | > 100 µM | > 100 µM | > 100 µM | > 100 µM | > 100 µM | > 100 µM | > 100 µM | – | > 100 µM | > 100 µM | > 100 µM | > 100 µM | > 100 µM | – | – | – | – | –
10 | COC(=O)CCc1ccc2c(c1)CCC2 | – | > 100 µM | > 100 µM | > 100 µM | > 100 µM | > 100 µM | > 100 µM | > 100 µM | > 100 µM | > 100 µM | > 100 µM | > 100 µM | > 100 µM | – | – | – | – | –
11 | CC1CC(N)=Nc2ccccc2N1Cc1ccccc1 (stereo not drawn) | 63.9 µM | > 100 µM | 27.2 µM | 27.4 µM | 19.9 µM | 28.2 µM | – | 31.1 µM | 28.2 µM | – | 27.8 µM | 30.9 µM | 28.1 µM | – | – | – | – | –
12 | Cc1ccc2c(c1)C(=O)/C(=C1/CCc3ccc(C)cc31)C2 | > 100 µM | > 100 µM | > 100 µM | > 100 µM | > 100 µM | > 100 µM | > 100 µM | > 100 µM | – | > 100 µM | > 100 µM | > 100 µM | > 100 µM | – | – | – | – | –
13 | O=C1c2ccccc2C(=O)c2c(OCC3CO3)ccc(OCC3CO3)c21 (stereo not drawn) | 35.5 µM | 11.5 µM | 7.09 µM | 15.1 µM | 10.8 µM | 11.4 µM | 0.515 µM | – | 12 µM | 9.02 µM | 15.5 µM | 27.2 µM | 9.34 µM | – | – | – | – | –
14 | CCOC(=O)c1ccc2c(c1)nc1n2C(c2c(F)cccc2F)SC1 (stereo not drawn) | – | 34 µM | > 100 µM | 56.4 µM | 42 µM | 37.7 µM | 58.6 µM | 77.3 µM | 71.2 µM | 53.1 µM | 26.1 µM | 83.5 µM | 28.5 µM | – | – | – | – | –
15 | C#CCCCC(=C)C[C@H](OCc1ccccc1)[C@H]1OC(=O)[C@@H]1C | > 100 µM | – | > 100 µM | – | – | > 100 µM | – | > 100 µM | > 100 µM | 68.5 µM | – | > 100 µM | – | – | – | – | – | –
16 | Cc1ccc(S(=O)(=O)Nn2c(-c3ccccc3)c(C#N)c(-c3ccc(Cl)cc3)c(C#N)c2=O)cc1 | – | 37.3 µM | > 100 µM | – | – | – | 52.2 µM | – | 98 µM | 55.7 µM | 29.3 µM | > 100 µM | 65.3 µM | – | – | – | – | –
17 | COc1ccc(-c2oc3c(CC(=O)O)cccc3c(=O)c2OC)cc1 | > 100 µM | > 100 µM | > 100 µM | > 100 µM | > 100 µM | – | – | > 100 µM | > 100 µM | > 100 µM | > 100 µM | – | > 100 µM | – | – | – | – | –
18 | CCCCCCNC(=O)c1cc(NCc2cc(OC)ccc2OC)ccc1O | 63.1 µM | 49.6 µM | – | 85.2 µM | 55 µM | 80 µM | 32.9 µM | 80.6 µM | 45.7 µM | 36.3 µM | 28.4 µM | > 100 µM | 33.9 µM | – | – | – | – | –
19 | CO/C(=N/N1CC1C(F)(F)F)c1ccncc1 (stereo not drawn) | – | > 100 µM | > 100 µM | > 100 µM | > 100 µM | > 100 µM | – | > 100 µM | – | – | > 100 µM | > 100 µM | > 100 µM | – | – | – | – | –
20 | Cc1cc(Cl)nc(NC(=O)CSc2ccc(Cl)cc2)n1 | > 100 µM | > 100 µM | > 100 µM | > 100 µM | > 100 µM | > 100 µM | > 100 µM | > 100 µM | > 100 µM | – | > 100 µM | > 100 µM | – | – | – | – | – | –
21 | CCOC(=O)CSc1nc(-c2ccc(OC)cc2)c(C#N)c(=O)[nH]1 | > 100 µM | > 100 µM | > 100 µM | > 100 µM | > 100 µM | > 100 µM | – | > 100 µM | > 100 µM | > 100 µM | > 100 µM | > 100 µM | > 100 µM | – | – | – | – | –
22 | O=C1CN(c2cccc(C(F)(F)F)c2)C(=O)CN1NCNN1CC(=O)N(c2cccc(C(F)(F)F)c2)CC1=O | > 100 µM | > 100 µM | > 100 µM | > 100 µM | > 100 µM | > 100 µM | – | – | > 100 µM | > 100 µM | > 100 µM | > 100 µM | > 100 µM | – | – | – | – | –
23 | CC(=O)OCC1OC(n2c(C)c(N=Nc3ccc(C)cc3)c(C)c(C#N)c2=S)C(OC(C)=O)C(OC(C)=O)C1OC(C)=O (stereo not drawn) | – | > 100 µM | > 100 µM | > 100 µM | > 100 µM | > 100 µM | > 100 µM | > 100 µM | > 100 µM | > 100 µM | > 100 µM | > 100 µM | > 100 µM | – | – | – | – | –
24 | O=C(Sc1c(-c2ccccc2)c(=O)n(-c2ccccc2)c(=S)n1-c1ccccc1)c1ccc(Cl)cc1 | > 100 µM | > 100 µM | > 100 µM | > 100 µM | > 100 µM | > 100 µM | > 100 µM | > 100 µM | – | > 100 µM | – | > 100 µM | > 100 µM | – | – | – | – | –
25 | COc1cc(CC2CCc3nc(N)nc(N)c3C2)cc(OC)c1OC (stereo not drawn) | > 100 µM | – | 69.7 µM | > 100 µM | 98.2 µM | > 100 µM | > 43.1 µM | > 72.5 µM | > 100 µM | > 60.4 µM | 16.6 µM | > 100 µM | 21.6 µM | – | – | – | – | –
26 | C1COC2SC3=C(SC(=C4SC5=C(SCCS5)S4)S3)SC2O1 (stereo not drawn) | > 100 µM | > 100 µM | > 100 µM | > 100 µM | > 100 µM | > 100 µM | – | > 100 µM | > 100 µM | > 100 µM | > 100 µM | > 100 µM | > 100 µM | – | – | – | – | –
27 | NC(=O)/N=C(\N)NC(=O)c1ccccc1 | > 100 µM | > 100 µM | > 100 µM | > 100 µM | > 100 µM | > 100 µM | > 100 µM | > 100 µM | > 100 µM | – | > 100 µM | > 100 µM | – | – | – | – | – | –
28 | COc1ccc(C2Oc3c(cccc3OC)C=C2[N+](=O)[O-])cc1OC (stereo not drawn) | > 100 µM | 17.4 µM | > 100 µM | > 100 µM | 24.7 µM | 34 µM | 20.5 µM | 22.3 µM | 26.5 µM | – | 16.1 µM | > 100 µM | 73.7 µM | – | – | – | – | –
29 | CC(=O)c1ccc(-c2oc(-c3ccccc3)cc2-c2ccc3c(c2)OCO3)s1 | > 100 µM | > 100 µM | > 100 µM | > 100 µM | > 100 µM | – | – | 89.9 µM | – | > 100 µM | > 100 µM | – | > 100 µM | – | – | – | – | –
